Assay results: patent publication US8940913B2, “Herbicides” (Syngenta Crop Protection, LLC, priority 2007, dated 2015)

Tests used:
Assay type in all cases: in vivo
[1] = tested on: Digitaria sanguinalis (DIGSA); test: Pre-emergence herbicidal activity, glasshouse pot test; details: 480 h, rate 250 g/ha, evaluated 20 days later, 100=total damage to plant, 0=no damage to plant
Procedure: (§1) Monocotyledonous and dicotyledonous test plants were sown in standard soil in pots. After cultivation for one day (pre-emergence) or after 10 days cultivation (post-emergence) under controlled conditions in a glasshouse, the plants were sprayed with an aqueous spray solution derived from the formulation of the technical active ingredient in 0.6 ml acetone and 45 ml formulation solution containing 10.6% Emulsogen EL (Registry number 61791-12-6), 42.2% N-methylpyrrolidone, 42.2% dipropylene glycol monomethyl ether (Registry number 34590-94-8) and 0.2% X-77 (Registry number 11097-66-8). The test plants were then grown in a greenhouse under optimum conditions until, 15 days later for post-emergence and 20 days for pre-emergence, the test was evaluated (100=total damage to plant; 0=no damage to plant). Test Plants: Alopecurus myosuroides (ALOMY), Avena fatua (AVEFA), Lolium perenne (LOLPE), Setaria faberi (SETFA), Digitaria sanguinalis (DIGSA), Echinochloa crus-galli (ECHCG)

[2] = tested on: Lolium perenne (LOLPE); test: as above; details: 480 h, rate 250 g/ha, evaluated 20 days later, 100=total damage to plant, 0=no damage to plant
Procedure: as §1

[3] = tested on: Echinochloa crus-galli (ECHCG); test: as above; details: 480 h, rate 250 g/ha, evaluated 20 days later, 100=total damage to plant, 0=no damage to plant
Procedure: as §1

[4] = tested on: Alopecurus myosuroides (ALOMY); test: as above; details: 480 h, rate 250 g/ha, evaluated 20 days later, 100=total damage to plant, 0=no damage to plant
Procedure: as §1

[5] = tested on: Avena fatua (AVEFA); test: as above; details: 480 h, rate 250 g/ha, evaluated 20 days later, 100=total damage to plant, 0=no damage to plant
Procedure: as §1

[6] = tested on: Setaria faberi (SETFA); test: as above; details: 480 h, rate 250 g/ha, evaluated 20 days later, 100=total damage to plant, 0=no damage to plant
Procedure: as §1

[7] = tested on: Digitaria sanguinalis (DIGSA); test: Post-emergence herbicidal activity, glasshouse pot test; details: 360 h, rate 125 g/ha, evaluated 15 days later, 100=total damage to plant, 0=no damage to plant
Procedure: as §1

[8] = tested on: Lolium perenne (LOLPE); test: as above; details: 360 h, rate 125 g/ha, evaluated 15 days later, 100=total damage to plant, 0=no damage to plant
Procedure: as §1

[9] = tested on: Echinochloa crus-galli (ECHCG); test: as above; details: 360 h, rate 125 g/ha, evaluated 15 days later, 100=total damage to plant, 0=no damage to plant
Procedure: as §1

[10] = tested on: Alopecurus myosuroides (ALOMY); test: as above; details: 360 h, rate 125 g/ha, evaluated 15 days later, 100=total damage to plant, 0=no damage to plant
Procedure: as §1

[11] = tested on: Avena fatua (AVEFA); test: as above; details: 360 h, rate 125 g/ha, evaluated 15 days later, 100=total damage to plant, 0=no damage to plant
Procedure: as §1

[12] = tested on: Setaria faberi (SETFA); test: as above; details: 360 h, rate 125 g/ha, evaluated 15 days later, 100=total damage to plant, 0=no damage to plant
Procedure: as §1

SMILES | pest or weed control at 250 g/ha [1] [%] | pest or weed control at 250 g/ha [2] [%] | pest or weed control at 250 g/ha [3] [%] | pest or weed control at 250 g/ha [4] [%] | pest or weed control at 250 g/ha [5] [%] | pest or weed control at 250 g/ha [6] [%] | pest or weed control at 125 g/ha [7] [%] | pest or weed control at 125 g/ha [8] [%] | pest or weed control at 125 g/ha [9] [%] | pest or weed control at 125 g/ha [10] [%] | pest or weed control at 125 g/ha [11] [%] | pest or weed control at 125 g/ha [12] [%]
CCc1ccc(-c2ccc(Cl)c(F)c2)cc1C1=C(O)[C@H]2[C@@H](C1=O)[C@]1(C)CC[C@@]2(C)O1 [Compound T33] | 70 | 50 | 70 | 20 | 0 | 80 | 100 | 80 | 100 | 100 | 100 | 100
CCc1ccc(-c2ccc(Cl)c(C(F)(F)F)c2)cc1C1=C(O)[C@H]2[C@@H](C1=O)[C@]1(C)CC[C@@]2(C)O1 [Compound T31] | 30 | 20 | 60 | 0 | 50 | 10 | 100 | 40 | 100 | 90 | 80 | 100
Cc1cc(-c2ccccc2)cc(C)c1C1=C(OC(=O)C(C)(C)C)[C@H]2[C@@H](C1=O)[C@@H]1CC[C@H]2O1 (racemic) [Compound P1, (1RS,2SR,6RS,7SR)-4-(3,5-dimethylbiphenyl-4-yl)-5-oxo-10-oxa-tricyclo[5.2.1.0^2,6]dec-3-en-3-yl 2,2-dimethylpropionate] | 100 | 100 | 100 | 100 | 70 | 90 | 80 | 90 | 100 | 100 | 50 | 80
Cc1cc(-c2ccccc2)cc(C)c1C1C(=O)[C@@H]2[C@H](C1=O)[C@H]1CC[C@@H]2O1 (mixture of isomers) [Compound T6, (1RS,2SR,6RS,7SR)-4-(3,5-dimethylbiphen-4-yl)-10-oxa-tricyclo[5.2.1.0^2,6]decane-3,5-dione] | 80 | 70 | 100 | 50 | 0 | 100 | 30 | 50 | 70 | 80 | 30 | 60
CCc1ccc(-c2ccc(Cl)cc2Cl)cc1C1=C(O)[C@H]2[C@@H](C1=O)[C@@H]1CC[C@H]2O1 (racemic) [Compound T11, (1RS,2SR,6RS,7SR)-4-(2′,4′-dichloro-4-ethylbiphen-3-yl)-10-oxa-tricyclo[5.2.1.0^2,6]decane-3,5-dione] | 90 | 80 | 100 | 70 | 60 | 100 | 90 | 50 | 100 | 100 | 90 | 100
CCc1ccc(-c2ccc(Cl)c(Cl)c2)cc1C1=C(O)[C@H]2[C@@H](C1=O)[C@]1(C)CC[C@@]2(C)O1 [Compound T29] | 40 | 30 | 0 | 10 | 0 | 50 | 100 | 50 | 100 | 90 | 90 | 100
CCc1ccc(-c2ccc(Cl)c(Cl)c2)cc1C1=C(O)[C@H]2[C@@H](C1=O)[C@@H]1CC[C@H]2O1 [Compound T14] | 90 | 40 | 90 | 10 | 20 | 100 | 100 | 30 | 100 | 90 | 80 | 100
CCc1ccc(-c2ccc(Cl)nc2Cl)cc1C1=C(O)[C@H]2[C@@H](C1=O)[C@@H]1CC[C@H]2O1 [Compound T21] | 90 | 60 | 100 | 50 | 50 | 100 | 100 | 40 | 100 | 80 | 80 | 90
CCc1ccc(-c2ccc(Cl)cc2F)cc1C1=C(O)[C@H]2[C@@H](C1=O)[C@]1(C)CC[C@@]2(C)O1 (racemic) [Compound T23, (1RS,2SR,6RS,7SR)-4-(4′-chloro-4-ethyl-2′-fluorobiphen-3-yl)-1,7-dimethyl-10-oxatricyclo[5.2.1.0^2,6]decane-3,5-dione] | 100 | 70 | 100 | 40 | 60 | 100 | 90 | 70 | 100 | 100 | 100 | 90
CCc1ccc(-c2ccc(Cl)cc2C)cc1C1=C(O)[C@H]2[C@@H](C1=O)[C@@H]1CC[C@H]2O1 [Compound T13] | 80 | 30 | 70 | 40 | 20 | 80 | 10 | 40 | 100 | 50 | 30 | 80
Cc1cc(-c2ccccc2)cc(C)c1C1C(=O)[C@@H]2[C@H](C1=O)[C@@]1(C)CC[C@]2(C)O1 (stereo partly drawn) [Compound T7] | 100 | 40 | 100 | 90 | 40 | 100 | 80 | 60 | 100 | 70 | 60 | 90
CCc1ccc(-c2ccc(Cl)c(F)c2)cc1C1=C(O)[C@H]2[C@@H](C1=O)[C@@H]1CC[C@H]2O1 [Compound T19] | 100 | 60 | 90 | 70 | 70 | 90 | 100 | 90 | 100 | 100 | 100 | 100
